Experimental data reported in PubChem BioAssay (NCI).
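A five-concentration, 48-hour dose response in 96-well plates underlies each endpoint, interpolated linearly between surrounding concentrations. Here, GI50 denotes the concentration required for 50% inhibition of growth. The concentration for full growth arrest is given as TGI.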

Tests used:
Assay in all cases: growth of human tumour cells (NCI), 48 h
OVCAR-3 ovarian = system: OVCAR-3 ovarian
NCI-H23 lung = system: NCI-H23 lung
K-562 leukemia = system: K-562 leukemia
T-47D breast = system: T-47D breast
SK-OV-3 ovarian = system: SK-OV-3 ovarian
ACHN renal = system: ACHN renal
M14 melanoma = system: M14 melanoma
A549 NSCLC = system: A549 NSCLC
CAKI-1 renal = system: CAKI-1 renal
HL-60(TB) leukemia = system: HL-60(TB) leukemia
MCF7 breast = system: MCF7 breast
SR leukemia = system: SR leukemia
HOP-92 NSCLC = system: HOP-92 NSCLC
TK-10 renal = system: TK-10 renal
A498 renal = system: A498 renal
MOLT-4 leukemia = system: MOLT-4 leukemia
OVCAR-8 ovarian = system: OVCAR-8 ovarian
SF-268 CNS = system: SF-268 CNS
SNB-75 CNS = system: SNB-75 CNS
HOP-62 NSCLC = system: HOP-62 NSCLC
PC-3 prostate = system: PC-3 prostate
SN12C renal = system: SN12C renal
SK-MEL-5 melanoma = system: SK-MEL-5 melanoma
UACC-62 melanoma = system: UACC-62 melanoma
RXF 393 renal = system: RXF 393 renal
HCT-116 colon = system: HCT-116 colon
SK-MEL-2 melanoma = system: SK-MEL-2 melanoma
OVCAR-5 ovarian = system: OVCAR-5 ovarian
U251 CNS = system: U251 CNS
HCC-2998 colon = system: HCC-2998 colon
HT29 colon = system: HT29 colon
BT-549 breast = system: BT-549 breast
EKVX NSCLC = system: EKVX NSCLC
SF-295 CNS = system: SF-295 CNS
UO-31 renal = system: UO-31 renal
RPMI-8226 leukemia = system: RPMI-8226 leukemia
HS 578T breast = system: HS 578T breast
NCI/ADR-RES ovarian = system: NCI/ADR-RES ovarian
DU-145 prostate = system: DU-145 prostate
786-0 renal = system: 786-0 renal
HCT-15 colon = system: HCT-15 colon
SNB-19 CNS = system: SNB-19 CNS
LOX IMVI melanoma = system: LOX IMVI melanoma
SW-620 colon = system: SW-620 colon
SF-539 CNS = system: SF-539 CNS
IGROV1 ovarian = system: IGROV1 ovarian
NCI-H226 lung = system: NCI-H226 lung
NCI-H522 lung = system: NCI-H522 lung
OVCAR-4 ovarian = system: OVCAR-4 ovarian
KM12 colon = system: KM12 colon
MDA-MB-435 = system: MDA-MB-435
COLO 205 colon = system: COLO 205 colon
UACC-257 melanoma = system: UACC-257 melanoma
SK-MEL-28 melanoma = system: SK-MEL-28 melanoma
MDA-MB-231 breast = system: MDA-MB-231 breast
NCI-H460 lung = system: NCI-H460 lung

COc1ccc(NC(=O)c2ccc(NC3=C(Cl)C(=O)N(Cc4ccccc4)C3=O)cc2)cc1
GI50 (OVCAR-3 ovarian): 2.11 µM | TGI (OVCAR-3 ovarian): 6.12 µM | GI50 (NCI-H23 lung): 8.38 µM | TGI (NCI-H23 lung): 30 µM | GI50 (K-562 leukemia): 4.02 µM | TGI (K-562 leukemia): 64.8 µM | GI50 (T-47D breast): 9.79 µM | TGI (T-47D breast): 77.5 µM | GI50 (SK-OV-3 ovarian): 18.4 µM | TGI (SK-OV-3 ovarian): 36.2 µM | GI50 (ACHN renal): 3.64 µM | TGI (ACHN renal): 12.7 µM | GI50 (M14 melanoma): 9.42 µM | TGI (M14 melanoma): 28.6 µM | GI50 (A549 NSCLC): 10.4 µM | TGI (A549 NSCLC): 29.9 µM | GI50 (CAKI-1 renal): 1.89 µM | TGI (CAKI-1 renal): 3.5 µM | GI50 (HL-60(TB) leukemia): 2.16 µM | GI50 (MCF7 breast): 7.9 µM | TGI (MCF7 breast): > 100 µM | GI50 (SR leukemia): 0.766 µM | TGI (SR leukemia): 3.61 µM | GI50 (HOP-92 NSCLC): 3.63 µM | TGI (HOP-92 NSCLC): 13.8 µM | GI50 (TK-10 renal): 22.1 µM | TGI (TK-10 renal): 38 µM | GI50 (A498 renal): 16.8 µM | TGI (A498 renal): 34.8 µM | GI50 (MOLT-4 leukemia): 2.6 µM | TGI (MOLT-4 leukemia): > 100 µM | GI50 (OVCAR-8 ovarian): 3.84 µM | TGI (OVCAR-8 ovarian): 18.2 µM | GI50 (SF-268 CNS): 31.5 µM | TGI (SF-268 CNS): > 100 µM | GI50 (SNB-75 CNS): 12.9 µM | TGI (SNB-75 CNS): 34.6 µM | GI50 (HOP-62 NSCLC): 17.1 µM | TGI (HOP-62 NSCLC): 32.6 µM | GI50 (PC-3 prostate): 6.74 µM | TGI (PC-3 prostate): 19.9 µM | GI50 (SN12C renal): 14.4 µM | TGI (SN12C renal): 30.2 µM | GI50 (SK-MEL-5 melanoma): 10 µM | TGI (SK-MEL-5 melanoma): 32.1 µM | GI50 (UACC-62 melanoma): 16.3 µM | TGI (UACC-62 melanoma): 36.8 µM | GI50 (RXF 393 renal): 3.21 µM | TGI (RXF 393 renal): 14.6 µM | GI50 (HCT-116 colon): 2.36 µM | TGI (HCT-116 colon): 4.89 µM | GI50 (SK-MEL-2 melanoma): 10.4 µM | TGI (SK-MEL-2 melanoma): 56.1 µM | GI50 (OVCAR-5 ovarian): 14.8 µM | TGI (OVCAR-5 ovarian): 28.8 µM | GI50 (U251 CNS): 13.3 µM | TGI (U251 CNS): 30.5 µM | GI50 (HCC-2998 colon): 15.6 µM | TGI (HCC-2998 colon): 31.1 µM | GI50 (HT29 colon): 11.5 µM | TGI (HT29 colon): 90.3 µM | GI50 (BT-549 breast): 8.27 µM | TGI (BT-549 breast): 26.2 µM | GI50 (EKVX NSCLC): 32.1 µM | TGI (EKVX NSCLC): > 100 µM | GI50 (SF-295 CNS): 3.52 µM | TGI (SF-295 CNS): 10.4 µM | GI50 (UO-31 renal): 2.66 µM | TGI (UO-31 renal): 11.3 µM | GI50 (RPMI-8226 leukemia): 2.38 µM | TGI (RPMI-8226 leukemia): 8.06 µM | GI50 (HS 578T breast): 15 µM | TGI (HS 578T breast): 62.9 µM | GI50 (NCI/ADR-RES ovarian): 11.9 µM | TGI (NCI/ADR-RES ovarian): 38.7 µM | GI50 (DU-145 prostate): 5 µM | TGI (DU-145 prostate): 24.3 µM | GI50 (786-0 renal): 2.89 µM | TGI (786-0 renal): 7.97 µM | GI50 (HCT-15 colon): 4.04 µM | TGI (HCT-15 colon): 17.3 µM | GI50 (SNB-19 CNS): 18 µM | TGI (SNB-19 CNS): 40.4 µM | GI50 (LOX IMVI melanoma): 3.06 µM | TGI (LOX IMVI melanoma): 8.43 µM | GI50 (SW-620 colon): 4.83 µM | TGI (SW-620 colon): > 100 µM | GI50 (SF-539 CNS): 3.29 µM | TGI (SF-539 CNS): 11.8 µM | GI50 (IGROV1 ovarian): 1.5 µM | TGI (IGROV1 ovarian): 3.93 µM | GI50 (NCI-H226 lung): 14.5 µM | TGI (NCI-H226 lung): 35.9 µM | GI50 (NCI-H522 lung): 3.3 µM | TGI (NCI-H522 lung): 13.8 µM | GI50 (OVCAR-4 ovarian): 3.01 µM | TGI (OVCAR-4 ovarian): 8.35 µM | GI50 (KM12 colon): 16.8 µM | TGI (KM12 colon): 38.2 µM | GI50 (MDA-MB-435): 5.64 µM | TGI (MDA-MB-435): 18.3 µM | GI50 (COLO 205 colon): 10.9 µM | TGI (COLO 205 colon): > 100 µM | GI50 (UACC-257 melanoma): 9.14 µM | TGI (UACC-257 melanoma): 24.8 µM | GI50 (SK-MEL-28 melanoma): 10.1 µM | TGI (SK-MEL-28 melanoma): 31.6 µM | GI50 (MDA-MB-231 breast): 11.9 µM | TGI (MDA-MB-231 breast): 26.2 µM | GI50 (NCI-H460 lung): 53.1 µM | TGI (NCI-H460 lung): > 100 µM
